molecular target: T1, SCD1 (Mus musculus, UniProt P13516); assay: SCD assay: release of tritiated water from desaturation of 9,10-3H-stearoyl CoA by mouse liver microsomes; format: biochemical; conditions: mouse liver microsomes as SCD source; 300 nM (9,10)3H-stearoyl CoA; 25 minutes at room temperature; read-out: IC50 (in vitro inhibition of SCD1)
T1 construct: Mouse liver microsomes, prepared from mice fed a high-carbohydrate diet, were a source of the SCD; from tissue; host or cells: mouse liver microsomes (mice fed a high-carbohydrate diet)
T1 sequence (P13516 1-355): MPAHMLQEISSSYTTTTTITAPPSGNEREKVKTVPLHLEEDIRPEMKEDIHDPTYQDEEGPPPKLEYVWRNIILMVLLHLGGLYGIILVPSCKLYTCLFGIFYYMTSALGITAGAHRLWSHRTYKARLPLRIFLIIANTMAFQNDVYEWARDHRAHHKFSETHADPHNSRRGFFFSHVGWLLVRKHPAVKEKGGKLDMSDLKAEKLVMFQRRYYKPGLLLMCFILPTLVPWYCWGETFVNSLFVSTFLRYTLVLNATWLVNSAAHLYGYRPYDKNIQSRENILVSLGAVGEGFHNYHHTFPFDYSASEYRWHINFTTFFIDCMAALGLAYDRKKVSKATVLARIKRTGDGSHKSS
From the text: Stearoyl CoA desaturase activity was monitored by a modification of the acyl carrier protein assay described by B. R. Talamo and K. Bloch in Anal. Biochem. 1968, 29, 300-304. The SCD assay monitors the release of tritiated water from the desaturation of 9,10-^3H-stearoyl CoA.
Mouse liver microsomes, prepared from mice fed a high-carbohydrate diet, were a source of the SCD and cyt b5 and cyt b5 reductase, necessary accessory proteins for the coupled reaction. Reaction mixtures for compound titrations contained 50 mM Tris HCl pH 7.5, 100 mM NaCl, 0.165 mg/ml BSA, 2.4% DMSO, 1 mM NADH, 0.03% T-20, and 300 nM (9,10)^3H-stearoyl CoA (Perkin-Elmer). Reactions were initiated upon the addition of 4 ug/ml SCD microsomes. Incubations were terminated after 25 minutes at room temperature with cold 6% TCA. After standing 10 minutes at 4° C., samples were centrifuged 15 minutes at 4000 rpm to pellet precipitated protein. Supernatants were added to microtiter plates containing suspensions of activated charcoal (Darco G-60, Fisher Scientific) and mixed by inversion. Plates were then centrifuged to separate ^3H—H2O product from charcoal-bound reactants. Supernatants were quantitated in a Perkin Elmer Topcount 384 after solubilization in ScintiSafe Plus 50% (Fisher Scientific).
Inhibition (%) of SCD activity by compounds was calculated according to the following formula: % Inhibition=100*[1−(CPMsample−CPMblank)/(CPMtotal−CPMblank)]

Row | Structure (SMILES) | IC50 [nM]
1 | NC(=O)c1cc(-c2ccc(OCc3c(Cl)cccc3Cl)cc2)no1 [Example 6, 3-[4-(2,6-Dichloro-benzyloxy)-phenyl]-isoxazole-5-carboxylic acid amide] | 2600
2 | NC(=O)c1cc(-c2ccc(OCc3ccc(F)c(F)c3)cc2)no1 [Example 7, 3-[4-(3,4-Difluoro-benzyloxy)-phenyl]-isoxazole-5-carboxylic acid amide] | 2300
3 | NC(=O)c1cc(-c2ccc(OCc3c(F)cccc3Cl)cc2)no1 [Example 12, 3-[4-(2-Chloro-6-fluoro-benzyloxy)-phenyl]-isoxazole-5-carboxylic acid amide] | 3100
4 | NC(=O)c1cc(-c2ccc(OCc3ccccc3Cl)cn2)no1 [Example 14, 3-[5-(2-Chloro-benzyloxy)-pyridin-2-yl]-isoxazole-5-carboxylic acid amide] | 1400
5 | NC(=O)c1cc(-c2ccc(OCc3cccc(C(F)(F)F)c3)cc2)no1 [Example 17, 3-[4-(3-Trifluoromethyl-benzyloxy)-phenyl]-isoxazole-5-carboxylic acid amide] | 1400
6 | NC(=O)c1cc(-c2ccc(COc3cccc(Cl)c3)cc2)no1 [Example 24, 3-[4-(3-Chloro-phenoxymethyl)-phenyl]-isoxazole-5-carboxylic acid amide] | 290
7 | NC(=O)c1cc(-c2ccc(COc3ccc(Cl)cc3)cc2)no1 [Example 25, 3-[4-(4-Chloro-phenoxymethyl)-phenyl]-isoxazole-5-carboxylic acid amide] | 1300
8 | Cc1cccc(OCc2ccc(-c3cc(C(N)=O)on3)cc2)c1 [Example 27, 3-(4-m-Tolyloxymethyl-phenyl)-isoxazole-5-carboxylic acid amide] | 560
9 | Cc1cccc(C)c1OCc1ccc(-c2cc(C(N)=O)on2)cc1 [Example 31, 3-[4-(2,6-Dimethyl-phenoxymethyl)-phenyl]-isoxazole-5-carboxylic acid amide] | 1900
10 | NC(=O)c1cc(-c2ccc(COc3ccccc3OC(F)(F)F)cc2)no1 [Example 33, 3-[4-(2-Trifluoromethoxy-phenoxymethyl)-phenyl]-isoxazole-5-carboxylic acid amide] | 470
11 | CC(C)(C)c1ccccc1OCc1ccc(-c2cc(C(N)=O)on2)cc1 [Example 35, 3-[4-(2-tert-Butyl-phenoxymethyl)-phenyl]-isoxazole-5-carboxylic acid amide] | 650
12 | NC(=O)c1cc(-c2ccc(COc3ccccc3C(F)(F)F)cc2)no1 [Example 36, 3-[4-(2-Trifluoromethyl-phenoxymethyl)-phenyl]-isoxazole-5-carboxylic acid amide] | 260
13 | N#Cc1ccccc1OCc1ccc(-c2cc(C(N)=O)on2)cc1 [Example 37, 3-[4-(2-Cyano-phenoxymethyl)-phenyl]-isoxazole-5-carboxylic acid amide] | 310
14 | Cc1cccnc1OCc1ccc(-c2cc(C(N)=O)on2)cc1 [Example 38, 3-[4-(3-Methyl-pyridin-2-yloxymethyl)-phenyl]-isoxazole-5-carboxylic acid amide] | 350
15 | Cc1ccc(Cl)cc1OCc1ccc(-c2cc(C(N)=O)on2)cc1 [Example 40, 3-[4-(5-Chloro-2-methyl-phenoxymethyl)-phenyl]-isoxazole-5-carboxylic acid amide] | 140
16 | Cc1c(Cl)cccc1OCc1ccc(-c2cc(C(N)=O)on2)cc1 [Example 41, 3-[4-(3-Chloro-2-methyl-phenoxymethyl)-phenyl]-isoxazole-5-carboxylic acid amide] | 390

More lines, now with the values ahead:

Row | IC50 [nM] | Structure (SMILES)
17 | 480 | NC(=O)c1cc(-c2ccc(OCc3ccccc3SC(F)(F)F)cc2)no1 [Example 1, 3-[4-(2-Trifluoromethylsulfanyl-benzyloxy)-phenyl]-isoxazole-5-carboxylic acid amide]
18 | 580 | NC(=O)c1cc(-c2ccc(OCc3ccccc3[S+]([O-])C(F)(F)F)cc2)no1 (stereo not drawn) [Example 2, 3-[4-(2-Trifluoromethanesulfinyl-benzyloxy)-phenyl]-isoxazole-5-carboxylic acid amide]
19 | 850 | COc1ccccc1COc1ccc(-c2cc(C(N)=O)on2)cc1 [Example 3, 3-[4-(2-Methoxy-benzyloxy)-phenyl]-isoxazole-5-carboxylic acid amide]
20 | 2700 | Cc1ccc(COc2ccc(-c3cc(C(N)=O)on3)cc2)cc1C [Example 4, 3-[4-(3,4-Dimethyl-benzyloxy)-phenyl]-isoxazole-5-carboxylic acid amide]
21 | 970 | N#Cc1ccccc1COc1ccc(-c2cc(C(N)=O)on2)cc1 [Example 5, 3-[4-(2-Cyano-benzyloxy)-phenyl]-isoxazole-5-carboxylic acid amide]
22 | 560 | NC(=O)c1cc(-c2ccc(OCc3ccccc3F)cc2)no1 [Example 8, 3-[4-(2-Fluoro-benzyloxy)-phenyl]-isoxazole-5-carboxylic acid amide]
23 | 460 | Cc1ccccc1COc1ccc(-c2cc(C(N)=O)on2)cc1 [Example 9, 3-[4-(2-Methyl-benzyloxy)-phenyl]-isoxazole-5-carboxylic acid amide]
24 | 210 | NC(=O)c1cc(-c2ccc(OCc3ccccc3OC(F)(F)F)cc2)no1 [Example 10, 3-[4-(2-Trifluoromethoxy-benzyloxy)-phenyl]-isoxazole-5-carboxylic acid amide]
25 | 410 | NC(=O)c1cc(-c2ccc(OCc3ccccc3I)cc2)no1 [Example 11, 3-[4-(2-Iodo-benzyloxy)-phenyl]-isoxazole-5-carboxylic acid amide]
26 | 420 | NC(=O)c1cc(-c2ccc(OCc3cc(F)ccc3Cl)cc2)no1 [Example 13, 3-[4-(2-Chloro-5-fluoro-benzyloxy)-phenyl]-isoxazole-5-carboxylic acid amide]
27 | 2400 | NC(=O)c1cc(-c2ccc(OCc3cccnc3Cl)cc2)no1 [Example 15, 3-[4-(2-Chloro-pyridin-3-ylmethoxy)-phenyl]-isoxazole-5-carboxylic acid amide]
28 | 1500 | NC(=O)c1cc(-c2ccc(OCc3cccc(Cl)c3)cc2)no1 [Example 18, 3-[4-(3-Chloro-benzyloxy)-phenyl]-isoxazole-5-carboxylic acid amide]
29 | 280 | NC(=O)c1cc(-c2ccc(OCc3ccccc3Cl)cc2)no1 [Example 19, 3-[4-(2-Chloro-benzyloxy)-phenyl]-isoxazole-5-carboxylic acid amide]
30 | 170 | NC(=O)c1cc(-c2ccc(OCc3ccccc3Br)cc2)no1 [Example 20, 3-[4-(2-Bromo-benzyloxy)-phenyl]-isoxazole-5-carboxylic acid amide]
31 | 180 | NC(=O)c1cc(-c2ccc(OCc3ccccc3C(F)(F)F)cc2)no1 [Example 21, 3-[4-(2-Trifluoromethyl-benzyloxy)-phenyl]-isoxazole-5-carboxylic acid amide]
32 | 1500 | CS(=O)(=O)c1ccccc1COc1ccc(-c2cc(C(N)=O)on2)cc1 [Example 22, 3-[4-(2-Methanesulfonyl-benzyloxy)-phenyl]-isoxazole-5-carboxylic acid amide]
33 | 66 | Cc1ccccc1OCc1ccc(-c2cc(C(N)=O)on2)cc1 [Example 26, 3-(4-o-Tolyloxymethyl-phenyl)-isoxazole-5-carboxylic acid amide]
34 | 170 | COc1ccccc1OCc1ccc(-c2cc(C(N)=O)on2)cc1 [Example 28, 3-[4-(2-Methoxy-phenoxymethyl)-phenyl]-isoxazole-5-carboxylic acid amide]
35 | 340 | COc1cccc(OCc2ccc(-c3cc(C(N)=O)on3)cc2)c1 [Example 29, 3-[4-(3-Methoxy-phenoxymethyl)-phenyl]-isoxazole-5-carboxylic acid amide]
36 | 3300 | COc1ccc(OCc2ccc(-c3cc(C(N)=O)on3)cc2)cc1 [Example 30, 3-[4-(4-Methoxy-phenoxymethyl)-phenyl]-isoxazole-5-carboxylic acid amide]
37 | 380 | CC(C)c1ccccc1OCc1ccc(-c2cc(C(N)=O)on2)cc1 [Example 32, 3-[4-(2-Isopropyl-phenoxymethyl)-phenyl]-isoxazole-5-carboxylic acid amide]
38 | 210 | CCc1ccccc1OCc1ccc(-c2cc(C(N)=O)on2)cc1 [Example 34, 3-[4-(2-Ethyl-phenoxymethyl)-phenyl]-isoxazole-5-carboxylic acid amide]
39 | 510 | NC(=O)c1cc(-c2ccc(COc3ccccc3F)cc2)no1 [Example 39, 3-[4-(2-Fluoro-phenoxymethyl)-phenyl]-isoxazole-5-carboxylic acid amide]

From patent US9296711B2, “Substituted isoxazole amide compounds as inhibitors of stearoyl-CoA desaturase 1 (SCD1)” (Hoffman-La Roche Inc., priority 2012, dated 2016)
